Measurements as given in PubChem BioAssay AID248 (DTP/NCI, 2004).
“And” between values parts separate entries of the source, which are not always exact repeats. Equal values may be shown once. Toxic doses and inconclusive results are not listed.

System: L1210 leukemia ip in BDF1 mice, survival T/C
Assay: NCI In Vivo Anticancer Drug Screen. Data for tumor model L1210 Leukemia (intraperitoneal) in B6D2F1 (BDF1) mice
Settings: endpoint: mean survival time, higher = longer survival
Method in brief: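 Tumor was transplanted into mice, which were then dosed with test compound or vehicle alone. Survival was recorded for each group, and the treated figure was expressed relative to the control figure.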

[1] = dose: 100.0 mg/kg/injection, schedule: Q04DX002 (ip), vehicle: saline
[2] = dose: 200.0 mg/kg/injection, schedule: Q04DX002 (ip), vehicle: saline
[3] = dose: 100.0 mg/kg/injection, schedule: Q01DX009 (ip), vehicle: saline with Tween-80
[4] = dose: 200.0 mg/kg/injection, schedule: Q01DX009 (ip), vehicle: saline with Tween-80
[5] = dose: 400.0 mg/kg/injection, schedule: Q01DX009 (ip), vehicle: saline with Tween-80
[6] = dose: 100.0 mg/kg/injection, schedule: Q04DX003 (ip), vehicle: saline with Tween-80
[7] = dose: 200.0 mg/kg/injection, schedule: Q04DX003 (ip), vehicle: saline with Tween-80
[8] = dose: 400.0 mg/kg/injection, schedule: Q04DX003 (ip), vehicle: saline with Tween-80

## Brc1cnc(Br)s1
dose: 44.0 mg/kg/injection, schedule: Q04DX002 (ip), vehicle: Klucel (hydroxypropylcellulose) (HPC)
  T/C: 97 % of control
dose: 67.0 mg/kg/injection, schedule: Q04DX002 (ip), vehicle: Klucel (hydroxypropylcellulose) (HPC)
  T/C: 109 % of control
dose: 100.0 mg/kg/injection, schedule: Q04DX002 (ip), vehicle: Klucel (hydroxypropylcellulose) (HPC)
  T/C: 116 % of control
dose: 150.0 mg/kg/injection, schedule: Q04DX002 (ip), vehicle: Klucel (hydroxypropylcellulose) (HPC)
  T/C: 113 % of control

## C[CH2][Ge]([CH2]C)[CH2]C.C[CH2][Ge]([CH2]C)[CH2]C.C[CH2][Ge][CH2]C
dose: 100.0 mg/kg/injection, schedule: Q04DX002 (ip), vehicle: saline with Tween-80
  T/C: 103 % of control
dose: 200.0 mg/kg/injection, schedule: Q04DX002 (ip), vehicle: saline with Tween-80
  T/C: 95 % of control
dose: 400.0 mg/kg/injection, schedule: Q04DX002 (ip), vehicle: saline with Tween-80
  T/C: 319 % of control

## CC(=O)OC1CC(n2cc(C)c(=O)[nH]c2=O)OC1COP(=O)(N1CC1(C)C)N1CC1(C)C (stereo not given)
dose: 50.0 mg/kg/injection, schedule: Q04DX002 (ip), vehicle: saline
  T/C: 110 % of control
[1]
  T/C: 112 % of control
[2]
  T/C: 123 % of control

## CC(C)(C)NC(=O)C1C2CCC1C2Cl (stereo not given)
dose: 75.0 mg/kg/injection, schedule: Q01DX001 (ip), vehicle: saline
  T/C: 96 % of control
dose: 150.0 mg/kg/injection, schedule: Q01DX001 (ip), vehicle: saline
  T/C: 92 % of control
dose: 300.0 mg/kg/injection, schedule: Q01DX001 (ip), vehicle: saline
  T/C: 90 % of control

## CCCCOCCOCCOC(OCCOCCOCCCC)c1ccc2c(c1)OCO2
[1]
  T/C: 88 % of control
[2]
  T/C: 92 % of control
dose: 400.0 mg/kg/injection, schedule: Q04DX002 (ip), vehicle: saline
  T/C: 95 % of control

## C=CCNC(=O)Oc1cccc(NC(=O)C(C)CCC)c1 (stereo not given)
[3]
  T/C: 101 % of control
[4]
  T/C: 95 % of control
[5]
  T/C: 108 % of control

## CS(=O)(=O)c1nnc(-c2ccccc2)s1
dose: 50.0 mg/kg/injection, schedule: Q01DX009 (ip), vehicle: saline with Tween-80
  T/C: 93 % of control
dose: 100.0 mg/kg/injection, schedule: Q01DX009 (ip), vehicle: Klucel (hydroxypropylcellulose) (HPC)
  T/C: 97 % of control
[3]
  T/C: 96 % of control and 90 % of control
dose: 200.0 mg/kg/injection, schedule: Q01DX009 (ip), vehicle: Klucel (hydroxypropylcellulose) (HPC)
  T/C: 94 % of control
[4]
  T/C: 93 % of control and 90 % of control

## C=C1CC[N+]2(CCCC)CCCC12 (stereo not given)
dose: 12.5 mg/kg/injection, schedule: Q01DX009 (ip), vehicle: Klucel (hydroxypropylcellulose) (HPC)
  T/C: 103 % of control
dose: 25.0 mg/kg/injection, schedule: Q01DX009 (ip), vehicle: Klucel (hydroxypropylcellulose) (HPC)
  T/C: 97 % of control
dose: 50.0 mg/kg/injection, schedule: Q01DX009 (ip), vehicle: Klucel (hydroxypropylcellulose) (HPC)
  T/C: 95 % of control

## CC(=O)N[C@H]1CC[C@H]2[C@@H]3CCC4=CC(=O)CC[C@]4(C)[C@H]3CC[C@]12C
[6]
  T/C: 86 % of control
[7]
  T/C: 92 % of control
[8]
  T/C: 86 % of control

## O=C1N=C(C(F)(F)F)N=C1c1[nH]c(C(F)(F)F)nc1O
[3]
  T/C: 95 % of control
[6]
  T/C: 104 % of control
[4]
  T/C: 98 % of control
[7]
  T/C: 100 % of control
[5]
  T/C: 102 % of control
[8]
  T/C: 105 % of control

## COc1cc(/C=C2\CCC/C(=C\c3ccc(O)c(OC)c3)C2=O)ccc1O
dose: 100.0 mg/kg/injection, schedule: Q04DX003 (ip), vehicle: Klucel (hydroxypropylcellulose) (HPC)
  T/C: 93 % of control
dose: 200.0 mg/kg/injection, schedule: Q04DX003 (ip), vehicle: Klucel (hydroxypropylcellulose) (HPC)
  T/C: 87 % of control

## COc1ccc(/C=C/c2cnnc3ccccc23)cc1OC
dose: 100.0 mg/kg/injection, schedule: Q01DX001 (ip), vehicle: Klucel (hydroxypropylcellulose) (HPC)
  T/C: 113 % of control
dose: 200.0 mg/kg/injection, schedule: Q01DX001 (ip), vehicle: Klucel (hydroxypropylcellulose) (HPC)
  T/C: 98 % of control
